Assay results reported in patent US11008317B2, “Triazolopyridine inhibitors of myeloperoxidase and/or EPX” (priority 2016, dated 2021).

Columns and labels:
[1] = target: T1, myeloperoxidase (Homo sapiens, UniProt P05164); assay: MPO Peroxidation Assay (Amplex Red Assay); type: biochemical; details: potency range class, read-out: Amplex Red Assay IC50 value
T1 sequence (P05164 49-745): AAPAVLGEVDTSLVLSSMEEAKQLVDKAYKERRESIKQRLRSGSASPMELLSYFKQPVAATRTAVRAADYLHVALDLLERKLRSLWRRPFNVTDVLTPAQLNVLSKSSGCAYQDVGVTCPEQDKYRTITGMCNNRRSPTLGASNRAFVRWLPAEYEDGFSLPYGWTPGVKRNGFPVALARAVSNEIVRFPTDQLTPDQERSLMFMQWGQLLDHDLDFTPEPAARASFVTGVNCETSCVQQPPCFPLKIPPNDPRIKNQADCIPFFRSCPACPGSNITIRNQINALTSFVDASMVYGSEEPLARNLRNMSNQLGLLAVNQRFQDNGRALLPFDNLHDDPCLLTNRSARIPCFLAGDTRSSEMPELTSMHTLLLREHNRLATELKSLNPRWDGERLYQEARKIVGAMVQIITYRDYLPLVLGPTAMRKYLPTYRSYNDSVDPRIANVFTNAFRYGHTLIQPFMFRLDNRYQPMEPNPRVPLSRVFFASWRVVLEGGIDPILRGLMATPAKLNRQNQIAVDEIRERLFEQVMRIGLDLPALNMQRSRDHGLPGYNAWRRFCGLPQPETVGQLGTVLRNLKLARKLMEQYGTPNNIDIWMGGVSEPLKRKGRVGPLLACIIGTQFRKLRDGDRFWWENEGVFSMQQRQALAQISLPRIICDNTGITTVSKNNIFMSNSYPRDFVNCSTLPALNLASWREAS

[2] = target: T1, myeloperoxidase; assay: MPO Chlorination Assay (APF Assay); type: biochemical; details: potency range class, read-out: APF Assay IC50 value

Row | IC50 [1] [nM] | IC50 [2] [nM] | Compound
1 | 101 to 999 | 1 to 100 | Nc1cc(C(CCNC2CCC(c3ccc(F)cc3)CC2)c2ccccc2)c2nn[nH]c2n1 (stereo not shown) [Example 125, 7-(3-{[4-(4-fluorophenyl)cyclohexyl]amino}-1-phenylpropyl)-3H-[1,2,3]triazolo[4,5-b]pyridin-5-amine]
2 | 101 to 999 | 1 to 100 | Nc1cc(C(CCNCC2CC2c2ccc(F)cc2)c2ccccc2)c2nn[nH]c2n1 (stereo not shown) [Example 176, 7-[3-({[2-(4-fluorophenyl)cyclopropyl]methyl}amino)-1-phenylpropyl]-3H-[1,2,3]triazolo[4,5-b]pyridin-5-amine]
3 | 101 to 999 | 1 to 100 | CC1(C)C[C@H](NCCC(c2ccccc2)c2cc(N)nc3[nH]nnc23)c2ccccc21 (stereo partly drawn) [Example 87, 7-(3-{[(1S)-3,3-dimethyl-2,3-dihydro-1H-inden-1-yl]amino}-1-phenylpropyl)-3H-[1,2,3]triazolo [4,5-b]pyridin-5-amine]
4 | 101 to 999 | 1 to 100 | Nc1cc([C@H](CCCN2[C@@H]3CC[C@H]2C[C@](O)(c2ccc(Cl)cc2)C3)c2ccccc2)c2nn[nH]c2n1 [Example 216, (1R,3R,5S)-8-[(4R)-4-{5-amino-3H-[1,2,3]triazolo [4,5-b]pyridin-7-yl}-4-phenylbutyl]-3-(4-chlorophenyl)-8-azabicyclo[3.2.1] octan-3-ol]
5 | 1 to 100 | 1 to 100 | COC1CC2(c3ccccc3)CCC1(NCC[C@H](c1ccccc1)c1cc(N)nc3[nH]nnc13)CC2 (stereo partly drawn) [Example 153, 7-[(1R)-3-({2-methoxy-4-phenylbicyclo[2.2.2]octan-1-yl}amino)-1-phenylpropyl]-3H-[1,2,3]triazolo[4,5-b]pyridin-5-amine]
6 | 101 to 999 | 1 to 100 | Nc1cc(C(CCNCc2ccccc2Cc2ccccc2)c2ccccc2)c2nn[nH]c2n1 (stereo not shown) [Example 63, 7-(3-{[(2-benzylphenyl)methyl]amino}-1-phenylpropyl)-3H-[1,2,3]triazolo[4,5-b]pyridin-5-amine]
7 | 101 to 999 | 1000 to 10000 | Nc1cc(C(CCNC(=O)c2ccccc2)c2ccccc2)c2nn[nH]c2n1 (stereo not shown) [Example 39, N-(3-(5-amino-3H-[1,2,3]triazolo[4,5-b]pyridin-7-yl)-3-phenylpropyl)benzamide]
8 | 1 to 100 | 1 to 100 | Nc1cc(C(CCNC2CCCc3ccccc32)c2ccccc2)c2nn[nH]c2n1 (stereo not shown) [Example 28, 7-{1-phenyl-3-[(1,2,3,4-tetrahydronaphthalen-1-yl)amino]propyl}-3H-[1,2,3]triazolo [4,5-b]pyridin-5-amine]
9 | 101 to 999 | 1 to 100 | Nc1cc(C(CCNCc2cccc3ccccc23)c2ccccc2)c2nn[nH]c2n1 (stereo not shown) [Example 17, 7-(3-((naphthalen-1-ylmethyl)amino)-1-phenylpropyl)-3H-[1,2,3]triazolo[4,5-b]pyridin-5-amine]
10 | 101 to 999 | 1 to 100 | CC1(C)C[C@@H](NCCC(c2ccccc2)c2cc(N)nc3[nH]nnc23)c2ccccc21 (stereo partly drawn) [Example 85, 7-(3-{[(1R)-3,3-dimethyl-2,3-dihydro-1H-inden-1-yl]amino}-1-phenylpropyl)-3H-[1,2,3]triazolo [4,5-b]pyridin-5-amine]
11 | 101 to 999 | 101 to 999 | Nc1cc(C(CCNCc2ccnc(C(F)(F)F)c2)c2ccccc2)c2nn[nH]c2n1 (stereo not shown) [Example 62, 7-[1-phenyl-3-({[2-(trifluoromethyl)pyridin-4-yl]methyl}amino)propyl]-3H-[1,2,3]triazolo[4,5-b]pyridin-5-amine]
12 | 1000 to 10000 | 1 to 100 | Nc1cc(C(CCNC2CCC(c3cccc(Cl)c3)CC2)c2ccccc2)c2nn[nH]c2n1 (stereo not shown) [Example 105, 7-(3-{[4-(3-chlorophenyl)cyclohexyl]amino}-1-phenylpropyl)-3H-[1,2,3]triazolo[4,5-b]pyridin-5-amine]
13 | 101 to 999 | 101 to 999 | Nc1cc(C(CCOC2CCc3ccccc32)c2ccccc2)c2nn[nH]c2n1 (single isomer, unassigned) [Example 231, 7-(3-((2,3-dihydro-1H-inden-1-yl)oxy)-1-phenylpropyl)-3H-[1,2,3]triazolo[4,5-b]pyridin-5-amine]
14 | 101 to 999 | 101 to 999 | Nc1cc(C(CCNCc2cccc(C(F)(F)F)c2)c2ccccc2)c2nn[nH]c2n1 (stereo not shown) [Example 53, 7-[1-phenyl-3-({[3-(trifluoromethyl)phenyl]methyl}amino)propyl]-3H-[1,2,3]triazolo[4,5-b]pyridin-5-amine]
15 | 1000 to 10000 | 1000 to 10000 | Nc1cc(C(CNCCc2ccccc2)c2ccccc2)c2nn[nH]c2n1 (stereo not shown) [Example 228, 7-{1-phenyl-2-[(2-phenylethyl)amino]ethyl}-3H-[1,2,3]triazolo[4,5-b]pyridin-5-amine]
16 | 1000 to 10000 | 101 to 999 | Nc1cc(C(CCN[C@@H]2C[C@@H](c3ccccc3)Cc3ccccc32)c2ccccc2)c2nn[nH]c2n1 (stereo partly drawn) [Example 84, 7-(1-phenyl-3-{[(1R,3S)-3-phenyl-1,2,3,4-tetrahydronaphthalen-1-yl]amino}propyl)-3H-[1,2,3]triazolo [4,5-b]pyridin-5-amine]
17 | 101 to 999 | 101 to 999 | Nc1cc(C(CCCN2CCC(c3ccccc3)C2)c2ccccc2)c2nn[nH]c2n1 (stereo not shown) [Example 209, 7-[1-phenyl-4-(3-phenylpyrrolidin-1-yl)butyl]-3H-[1,2,3]triazolo [4,5-b]pyridin-5-amine]
18 | 101 to 999 | 1 to 100 | COCCN(CC[C@H](c1ccccc1)c1cc(N)nc2[nH]nnc12)C12CCC(c3ccccc3)(CC1)CC2 [Example 196, 7-[(1R)-3-[(2-methoxyethyl)({4-phenylbicyclo[2.2.2]octan-1-yl})amino]-1-phenylpropyl]-3H-[1,2,3]triazolo[4,5-b]pyridin-5-amine]
19 | 101 to 999 | 101 to 999 | CC1C[C@@H](NCCC(c2ccccc2)c2cc(N)nc3[nH]nnc23)c2ccccc21 (stereo partly drawn) [Example 88, 7-(3-{[(1R)-3-methyl-2,3-dihydro-1H-inden-1-yl]amino}-1-phenylpropyl)-3H-[1,2,3]triazolo[4,5-b]pyridin-5-amine]
20 | 1000 to 10000 | 1 to 100 | Nc1cc(C(CCN[C@@H](CO)CCCc2ccccc2)c2ccccc2)c2nn[nH]c2n1 (stereo partly drawn) [Example 236, (R)-2-((3-(5-amino-3H-[1,2,3]triazolo[4,5-b]pyridin-7-yl)-3-phenylpropyl)amino)-5-phenylpentan-1-ol]
21 | 101 to 999 | 1 to 100 | Nc1cc(C(CCNC2CCCc3ccccc32)c2ccccc2)c2nn[nH]c2n1 (stereo not shown) [Example 25, 7-{1-phenyl-3-[(1,2,3,4-tetrahydronaphthalen-1-yl)amino]propyl}-3H-[1,2,3] triazolo[4,5-b] pyridin-5-amine]
22 | 1000 to 10000 | 1 to 100 | Nc1cc([C@H](CCN2CCC(O)(Cc3ccccc3)CC2)c2ccccc2)c2nn[nH]c2n1 [Example 185, 1-[(3R)-3-{5-amino-3H-[1,2,3]triazolo [4,5-b]pyridin-7-yl}-3-phenylpropyl]-4-benzylpiperidin-4-ol]
23 | 101 to 999 | 101 to 999 | Nc1cc([C@H](Cc2nc3ccccc3o2)c2ccccc2)c2nn[nH]c2n1 [Example 240, (R)-7-(2-(benzo[d]oxazol-2-yl)-1-phenylethyl)-3H-[1,2,3]triazolo[4,5-b]pyridin-5-amine]
24 | 101 to 999 | 1 to 100 | Nc1cc([C@H](Cc2nc3ccc(-c4ccccc4)cc3c(=O)[nH]2)c2ccccc2)c2nn[nH]c2n1 [Example 241]
25 | 1 to 100 | 1 to 100 | Nc1cc([C@H](Cc2nc3ccc(-c4ccccc4)cc3s2)c2ccccc2)c2nn[nH]c2n1 [Example 242, (R)-7-(1-phenyl-2-(6-phenylbenzo[d]thiazol-2-yl)ethyl)-3H-[1,2,3]triazolo [4,5-b]pyridin-5-amine]
26 | 101 to 999 | 101 to 999 | Nc1cc(C(CCC(O)Cc2ccccc2)c2ccccc2)c2nn[nH]c2n1 (stereo not shown) [Example 234, 5-(5-amino-3H-[1,2,3]triazolo[4,5-b]pyridin-7-yl)-1,5-diphenylpentan-2-ol]
27 | 101 to 999 | 1 to 100 | Nc1cc([C@H](Cc2nc3c(-c4ccccc4)cc(C(F)(F)F)cc3[nH]2)c2ccccc2)c2nn[nH]c2n1 [Example 248, (R)-7-(1-phenyl-2-(4-phenyl-6-(trifluoromethyl)-1H-benzo [d]imidazol-2-yl)ethyl)-3H-[1,2,3] triazolo[4,5-b] pyridin-5-amine]
28 | 101 to 999 | 1 to 100 | Nc1cc([C@H](Cc2nc3cccc(-c4ccccc4)c3[nH]2)c2ccccc2)c2nn[nH]c2n1 [Example 238, (R)-7-(1-phenyl-2-(7-phenyl-1H-benzo[d]imidazol-2-yl)ethyl)-3H-[1,2,3]triazolo[4,5-b]pyridin-5-amine]
29 | 101 to 999 | 1 to 100 | NC(=O)CN(CC[C@H](c1ccccc1)c1cc(N)nc2[nH]nnc12)C12CCC(c3ccccc3)(CC1)CC2 [Example 190, (R)-2-((3-(5-amino-3H-[1,2,3]triazolo[4,5-b]pyridin-7-yl)-3-phenylpropyl)(4-phenylbicyclo[2.2.2]octan-1-yl)amino)acetamide]
